Experimental data reported in patent publication US8969360B2, “Compounds useful as inhibitors of ATR kinase” (Vertex Pharmaceuticals Incorporated, priority 2013, dated 2015).

Key:
ATR kinase = target: T1, ATR kinase (Homo sapiens, UniProt Q13535); test: ATR Inhibition Assay (radioactive-phosphate incorporation); assay type: biochemical; conditions: Ki(app); 5 nM full-length ATR, 10 μM ATP, 800 μM target peptide, 25° C.
T1 construct: Assays were carried out at 25° C. in the presence of 5 nM full-length ATR
Protocol: Compounds were screened for their ability to inhibit ATR kinase using a radioactive-phosphate incorporation assay. Assays were carried out in a mixture of 50 mM Tris/HCl (pH 7.5), 10 mM MgCl2 and 1 mM DTT. Final substrate concentrations were 10 μM [γ-33P]ATP (3 mCi 33P ATP/mmol ATP, Perkin Elmer) and 800 μM target peptide (ASELPASQPQPFSAKKK (SEQ. ID NO: 1)).
Assays were carried out at 25° C. in the presence of 5 nM full-length ATR. An assay stock buffer solution was prepared containing all of the reagents listed above, with the exception of ATP and the test compound of interest. 13.5 μL of the stock solution was placed in a 96 well plate followed by addition of 2 μL of DMSO stock containing serial dilutions of the test compound (typically starting from a final concentration of 15 μM with 3-fold serial dilutions) in duplicate (final DMSO concentration 7%). The plate was pre-incubated for 10 minutes at 25° C. and the reaction initiated by addition of 15 μL [γ-33P]ATP (final concentration 10 μM).
The reaction was stopped after […] by the addition of 30 μL, 0.1M phosphoric acid containing 2 mM ATP. A multiscreen phosphocellulose filter 96-well plate (Millipore, Cat no. MAPHN0B50) was pretreated with 100 μL 0.2M phosphoric acid prior to the addition of 45 μL of the stopped assay mixture. The plate was washed with 5×200 μL 0.2M phosphoric acid. After drying, 100 μL Optiphase ‘SuperMix’ liquid scintillation cocktail (Perkin Elmer) was added to the well prior to scintillation counting (1450 Microbeta Liquid Scintillation Counter, Wallac).
After removing mean background values for all of the data points, Ki(app) data were calculated from non-linear regression analysis of the initial rate data using the Prism software package (GraphPad Prism version 3.0cx for Macintosh, GraphPad Software, San Diego Calif., USA).
Compounds with a Ki value of <0.01 μM are marked with “+++.” Compounds with a Ki value >0.01 μM but <1 μM are marked with “++.” Compounds with a Ki value >1 μM but <5 μM are marked with “+.”

[1] = system: HCT116 colorectal cancer cells; test: Cisplatin Sensitization Assay (96 h cell viability MTS); assay type: cell-based; conditions: concentration of compound required to reduce the IC50 of Cisplatin alone by at least 3-fold; HCT116, 96 h MTS
Protocol: Compounds can be screened for their ability to sensitize HCT116 colorectal cancer cells to Cisplatin using a 96 h cell viability (MTS) assay. […] Compounds and Cisplatin are then both added simultaneously to the cell media in 2-fold serial dilutions from a top final concentration of 10 μM as a full matrix of concentrations in a final cell volume of 200 μl, and the cells are then incubated at 37° C. in 5% CO2. After 96 h, 40 μl of MTS reagent (Promega G358a) is added to each well and the cells are incubated for 1 h at 37° C. in 5% CO2. Finally, absorbance is measured at 490 nm using a SpectraMax Plus 384 reader (Molecular Devices) and the concentration of compound required to reduce the IC50 of Cisplatin alone by at least 3-fold (to 1 decimal place) can be reported.
Compounds with a Cisplatin sensitization value of <0.02 μM are marked with “+++.” Compounds with a Cisplatin sensitization value>0.02 μM but <0.2 μM are marked with “++.” Compounds with a Cisplatin sensitization value >0.2 μM but <5 μM are marked with “+.”

T1 sequence (Q13535 whole entry): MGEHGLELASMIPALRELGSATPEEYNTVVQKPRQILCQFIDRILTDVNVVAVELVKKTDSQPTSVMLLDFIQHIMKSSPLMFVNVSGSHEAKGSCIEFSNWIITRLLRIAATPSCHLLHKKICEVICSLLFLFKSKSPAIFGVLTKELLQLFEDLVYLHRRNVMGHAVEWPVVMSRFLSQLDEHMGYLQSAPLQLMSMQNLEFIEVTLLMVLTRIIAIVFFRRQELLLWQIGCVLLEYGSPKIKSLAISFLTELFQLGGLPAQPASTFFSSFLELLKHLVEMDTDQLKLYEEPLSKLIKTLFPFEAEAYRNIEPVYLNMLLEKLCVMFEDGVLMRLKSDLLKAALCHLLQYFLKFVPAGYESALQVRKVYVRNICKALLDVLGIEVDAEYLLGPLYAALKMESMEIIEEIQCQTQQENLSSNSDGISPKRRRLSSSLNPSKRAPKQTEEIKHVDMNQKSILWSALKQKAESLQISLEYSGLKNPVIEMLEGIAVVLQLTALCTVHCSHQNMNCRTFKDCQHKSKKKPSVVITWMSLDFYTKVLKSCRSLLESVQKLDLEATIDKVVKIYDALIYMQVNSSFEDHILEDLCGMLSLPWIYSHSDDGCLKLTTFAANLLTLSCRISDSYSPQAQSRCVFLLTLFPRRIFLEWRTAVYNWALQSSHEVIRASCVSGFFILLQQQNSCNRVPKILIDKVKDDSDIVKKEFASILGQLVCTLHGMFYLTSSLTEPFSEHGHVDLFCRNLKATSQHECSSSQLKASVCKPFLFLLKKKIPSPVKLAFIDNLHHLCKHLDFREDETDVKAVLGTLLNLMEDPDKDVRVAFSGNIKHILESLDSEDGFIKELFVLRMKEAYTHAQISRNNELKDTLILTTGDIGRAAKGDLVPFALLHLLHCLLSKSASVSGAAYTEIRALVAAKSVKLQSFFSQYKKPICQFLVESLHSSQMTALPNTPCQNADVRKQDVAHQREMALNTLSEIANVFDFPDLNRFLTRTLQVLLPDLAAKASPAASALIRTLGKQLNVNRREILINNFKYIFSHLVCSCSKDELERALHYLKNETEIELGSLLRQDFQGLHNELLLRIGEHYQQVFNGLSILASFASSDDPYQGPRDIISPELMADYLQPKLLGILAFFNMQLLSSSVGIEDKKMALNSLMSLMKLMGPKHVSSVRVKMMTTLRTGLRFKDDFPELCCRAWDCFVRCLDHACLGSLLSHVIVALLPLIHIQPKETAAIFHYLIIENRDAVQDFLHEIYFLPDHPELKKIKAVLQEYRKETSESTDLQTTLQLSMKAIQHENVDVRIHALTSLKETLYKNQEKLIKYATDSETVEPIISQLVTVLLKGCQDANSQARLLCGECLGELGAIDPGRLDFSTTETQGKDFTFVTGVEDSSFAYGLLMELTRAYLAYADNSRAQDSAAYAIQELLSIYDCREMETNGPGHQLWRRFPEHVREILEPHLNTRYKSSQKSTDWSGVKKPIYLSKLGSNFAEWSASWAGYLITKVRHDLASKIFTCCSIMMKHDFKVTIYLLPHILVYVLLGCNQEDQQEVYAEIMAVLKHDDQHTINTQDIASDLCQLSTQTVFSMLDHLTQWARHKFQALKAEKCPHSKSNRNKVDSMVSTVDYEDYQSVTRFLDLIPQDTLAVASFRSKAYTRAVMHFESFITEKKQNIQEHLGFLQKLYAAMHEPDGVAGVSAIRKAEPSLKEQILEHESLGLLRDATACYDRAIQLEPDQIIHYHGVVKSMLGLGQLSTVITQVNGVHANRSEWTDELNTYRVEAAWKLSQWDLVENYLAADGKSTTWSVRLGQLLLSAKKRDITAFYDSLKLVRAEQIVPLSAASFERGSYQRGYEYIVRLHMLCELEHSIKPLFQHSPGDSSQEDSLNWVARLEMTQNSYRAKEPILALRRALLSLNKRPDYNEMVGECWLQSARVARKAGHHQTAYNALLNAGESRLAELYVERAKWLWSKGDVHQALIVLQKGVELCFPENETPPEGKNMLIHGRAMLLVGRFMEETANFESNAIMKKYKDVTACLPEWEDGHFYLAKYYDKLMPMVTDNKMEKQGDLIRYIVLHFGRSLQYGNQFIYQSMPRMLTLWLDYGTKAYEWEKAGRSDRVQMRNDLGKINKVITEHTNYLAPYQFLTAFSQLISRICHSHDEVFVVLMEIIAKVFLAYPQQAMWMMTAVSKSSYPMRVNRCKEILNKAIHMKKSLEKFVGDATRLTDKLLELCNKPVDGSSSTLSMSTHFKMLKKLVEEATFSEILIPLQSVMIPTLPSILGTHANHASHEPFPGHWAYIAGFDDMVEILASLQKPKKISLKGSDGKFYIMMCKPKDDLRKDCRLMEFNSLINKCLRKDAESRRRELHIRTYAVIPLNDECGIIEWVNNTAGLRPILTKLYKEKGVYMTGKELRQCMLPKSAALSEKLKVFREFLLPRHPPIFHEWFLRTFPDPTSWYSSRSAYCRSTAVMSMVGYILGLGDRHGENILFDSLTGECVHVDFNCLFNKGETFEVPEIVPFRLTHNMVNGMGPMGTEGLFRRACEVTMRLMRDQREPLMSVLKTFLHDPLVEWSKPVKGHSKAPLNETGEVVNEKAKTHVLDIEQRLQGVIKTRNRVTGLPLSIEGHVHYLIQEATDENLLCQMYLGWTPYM

| SMILES | Ki (ATR kinase) [nM] | Synergy with Cisplatin [1] |
| --- | --- | --- |
| Cc1ccncc1NC(=O)c1c(N)nn2ccc(OCCN(C)C)nc12 [I-C-3, 2-amino-5-(2-(dimethylamino)ethoxy)-N-(4-methylpyridin-3-yl)pyrazolo[1,5-a]pyrimidine-3-carboxamide] | 1000 to 5000 | ++ (Compounds with a Cisplatin sensitization value>0.02 μM but <0.2 μM are marked with “++.”) |
| Nc1nn2ccc(C(F)(F)F)nc2c1C(=O)Nc1cnccc1OC1CCC1 [I-O-5, 2-amino-N-(4-cyclobutoxypyridin-3-yl)-5-(trifluoromethyl)pyrazolo[1,5-a]pyrimidine-3-carboxamide] | 10 to 1000 | +++ (Compounds with a Cisplatin sensitization value of <0.02 μM are marked with “+++.”) |
| Nc1nn2ccc(C(F)(F)F)nc2c1C(=O)Nc1cnccc1OC1CCC2(CC1)OCCO2 [I-O-7, N-(4-(1,4-dioxaspiro[4.5]decan-8-yloxy)pyridin-3-yl)-2-amino-5-(trifluoromethyl)pyrazolo[1,5-a]pyrimidine-3-carboxamide] | 10 to 1000 |  |
| COCCOc1ccncc1NC(=O)c1c(N)nn2ccc(C(F)(F)F)nc12 [I-O-8, 2-amino-N-(4-(2-methoxyethoxy)pyridin-3-yl)-5-(trifluoromethyl)pyrazolo[1,5-a]pyrimidine-3-carboxamide] | 10 to 1000 | +++ (Compounds with a Cisplatin sensitization value of <0.02 μM are marked with “+++.”) |
| Nc1nn2ccc(C(F)(F)F)nc2c1C(=O)Nc1cnccc1O[C@@H]1CCOC1 [I-O-9, (R)-2-amino-N-(4-((tetrahydrofuran-3-yl)oxy)pyridin-3-yl)-5-(trifluoromethyl)pyrazolo[1,5-a]pyrimidine-3-carboxamide] | 10 to 1000 | +++ (Compounds with a Cisplatin sensitization value of <0.02 μM are marked with “+++.”) |
| Nc1nn2ccc(C(F)(F)F)nc2c1C(=O)Nc1cnccc1O[C@H]1CCOC1 [I-O-10, (S)-2-amino-N-(4-((tetrahydrofuran-3-yl)oxy)pyridin-3-yl)-5-(trifluoromethyl)pyrazolo[1,5-a]pyrimidine-3-carboxamide] | 10 to 1000 | +++ (Compounds with a Cisplatin sensitization value of <0.02 μM are marked with “+++.”) |
| Nc1nn2ccc(C(F)(F)F)nc2c1C(=O)Nc1cnccc1OC1CCOCC1 [I-O-11, 2-amino-N-(4-((tetrahydro-2H-pyran-4-yl)oxy)pyridin-3-yl)-5-(trifluoromethyl)pyrazolo[1,5-a]pyrimidine-3-carboxamide] | 10 to 1000 | +++ (Compounds with a Cisplatin sensitization value of <0.02 μM are marked with “+++.”) |
| Nc1nn2ccc(C(F)(F)F)nc2c1C(=O)Nc1cnccc1OC1CCCOC1 (centres unmarked) [I-O-12, 2-amino-N-(4-((tetrahydro-2H-pyran-3-yl)oxy)pyridin-3-yl)-5-(trifluoromethyl)pyrazolo[1,5-a]pyrimidine-3-carboxamide] | 10 to 1000 | +++ (Compounds with a Cisplatin sensitization value of <0.02 μM are marked with “+++.”) |
| Nc1nn2ccc(C(F)(F)F)nc2c1C(=O)Nc1cnccc1OC1CN2CCC1CC2 (centres unmarked) [I-O-29, 2-amino-N-(4-(quinuclidin-3-yloxy)pyridin-3-yl)-5-(trifluoromethyl)pyrazolo[1,5-a]pyrimidine-3-carboxamide] | 10 to 1000 |  |
| CN1CC(Oc2ccncc2NC(=O)c2c(N)nn3ccc(C(F)(F)F)nc23)C1 [I-O-39, 2-amino-N-(4-((1-methylazetidin-3-yl)oxy)pyridin-3-yl)-5-(trifluoromethyl)pyrazolo[1,5-a]pyrimidine-3-carboxamide] | 10 to 1000 |  |
| CC(C)(C#N)c1ccn2nc(N)c(C(=O)Nc3cnccc3OC3CNC3)c2n1 [I-O-53, 2-amino-N-(4-(azetidin-3-yloxy)pyridin-3-yl)-5-(2-cyanopropan-2-yl)pyrazolo[1,5-a]pyrimidine-3-carboxamide] | 10 to 1000 |  |
| COc1ccncc1NC(=O)c1c(N)nn2ccc(N3CC4(COC4)C3)nc12 [I-O-69, 2-amino-N-(4-methoxypyridin-3-yl)-5-(2-oxa-6-azaspiro[3.3]heptan-6-yl)pyrazolo[1,5-a]pyrimidine-3-carboxamide] | 10 to 1000 |  |
| CNC1CCN(c2ccn3nc(N)c(C(=O)Nc4cnccc4OC)c3n2)C1 (centres unmarked) [I-O-81, 2-amino-N-(4-methoxypyridin-3-yl)-5-(3-(methylamino)pyrrolidin-1-yl)pyrazolo[1,5-a]pyrimidine-3-carboxamide] | 10 to 1000 |  |

The next lines start with results.

| Ki (ATR kinase) [nM] | SMILES | Synergy with Cisplatin [1] |
| --- | --- | --- |
| 10 to 1000 | Cc1ccncc1NC(=O)c1c(N)nn2ccc(C(F)(F)F)nc12 [I-C-1, 2-amino-N-(4-methylpyridin-3-yl)-5-(trifluoromethyl)pyrazolo[1,5-a]pyrimidine-3-carboxamide] | ++ (Compounds with a Cisplatin sensitization value>0.02 μM but <0.2 μM are marked with “++.”) |
| 10 to 1000 | Nc1nn2ccc(C(F)(F)F)nc2c1C(=O)Nc1cnccc1-c1ccccc1 [I-C-2, 2-amino-N-(4-phenylpyridin-3-yl)-5-(trifluoromethyl)pyrazolo[1,5-a]pyrimidine-3-carboxamide] | + (Compounds with a Cisplatin sensitization value >0.2 μM but <5 μM are marked with “+.”) |
| 10 to 1000 | CN1CCN(c2ccncc2NC(=O)c2c(N)nn3ccc(C(F)(F)F)nc23)CC1 [I-N-1, 2-amino-N-(4-(4-methylpiperazin-1-yl)pyridin-3-yl)-5-(trifluoromethyl)pyrazolo[1,5-a]pyrimidine-3-carboxamide] | + (Compounds with a Cisplatin sensitization value >0.2 μM but <5 μM are marked with “+.”) |
| 10 to 1000 | NCC1CCN(c2ccncc2NC(=O)c2c(N)nn3ccc(C(F)(F)F)nc23)CC1 [I-N-2, 2-amino-N-(4-(4-(aminomethyl)piperidin-1-yl)pyridin-3-yl)-5-(trifluoromethyl)pyrazolo[1,5-a]pyrimidine-3-carboxamide] |  |
| 10 to 1000 | Nc1nn2ccc(C(F)(F)F)nc2c1C(=O)Nc1cnccc1N1CCN(CCO)CC1 [I-N-3, 2-amino-N-(4-(4-(2-hydroxyethyl)piperazin-1-yl)pyridin-3-yl)-5-(trifluoromethyl)pyrazolo[1,5-a]pyrimidine-3-carboxamide] |  |
| < 10 | COc1ccncc1NC(=O)c1c(N)nn2ccc(C(F)(F)F)nc12 [I-O-1, 2-amino-N-(4-methoxypyridin-3-yl)-5-(trifluoromethyl)pyrazolo[1,5-a]pyrimidine-3-carboxamide] | +++ (Compounds with a Cisplatin sensitization value of <0.02 μM are marked with “+++.”) |
| < 10 | CCOc1ccncc1NC(=O)c1c(N)nn2ccc(C(F)(F)F)nc12 [I-O-2, 2-amino-N-(4-ethoxypyridin-3-yl)-5-(trifluoromethyl)pyrazolo[1,5-a]pyrimidine-3-carboxamide] | +++ (Compounds with a Cisplatin sensitization value of <0.02 μM are marked with “+++.”) |
| < 10 | Nc1nn2ccc(C(F)(F)F)nc2c1C(=O)Nc1cnccc1OCC(F)(F)F [I-O-3, 2-amino-N-(4-(2,2,2-trifluoroethoxy)pyridin-3-yl)-5-(trifluoromethyl)pyrazolo[1,5-a]pyrimidine-3-carboxamide] | +++ (Compounds with a Cisplatin sensitization value of <0.02 μM are marked with “+++.”) |
| 10 to 1000 | CC(C)Oc1ccncc1NC(=O)c1c(N)nn2ccc(C(F)(F)F)nc12 [I-O-4, 2-amino-N-(4-isopropoxypyridin-3-yl)-5-(trifluoromethyl)pyrazolo[1,5-a]pyrimidine-3-carboxamide] | +++ (Compounds with a Cisplatin sensitization value of <0.02 μM are marked with “+++.”) |
| < 10 | Nc1nn2ccc(C(F)(F)F)nc2c1C(=O)Nc1cnccc1OCC1CC1 [I-O-6, 2-amino-N-(4-(cyclopropylmethoxy)pyridin-3-yl)-5-(trifluoromethyl)pyrazolo[1,5-a]pyrimidine-3-carboxamide] | +++ (Compounds with a Cisplatin sensitization value of <0.02 μM are marked with “+++.”) |
